Data on 25 molecules can be found in US9187472B2 (AbbVie Inc., priority 2012, dated 2015).

Assay [1] deals with NAMPT (human, recombinant, C-terminally His-tagged) (Homo sapiens, UniProt P43490). Briefly: Time-Resolved Fluorescence Resonance Energy Transfer (TR-FRET) Binding Assay of NAMPT. Conditions: without substrates; 6.8 nM NAMPT, 200 nM probe, 3 hours equilibration. The gist of the method: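 A TR-FRET probe-displacement assay used 6.8 nM His-tagged recombinant human NAMPT, 200 nM Oregon Green 488-labelled nicotinamide-competitive probe and 1 nM Tb-anti-His antibody. Buffer was HEPES pH 7.5 with NaCl, MgCl2, DTT and glycerol, plus 2% DMSO, equilibrated 3 h at room temperature. Em520/Em495 ratios, normalized to controls, gave IC50 by four-parameter logistic fit.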

Another assay concerns the target NAMPT (Homo sapiens, UniProt P43490). Description: TR-FRET Binding Assay of NAMPT with PRPP. Conditions: with 200 μM PRPP and 2.5 mM ATP; 2 nM NAMPT, 2 nM probe, 16 hours equilibration. The gist of the method: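 Human NAMPT (2 nM) with 2 nM probe and 1 nM Tb-anti-His antibody, plus 200 μM PRPP and 2.5 mM ATP, 2% DMSO. TR-FRET read after 16 h equilibration, permitting possible enzymatic modification of test compounds; data processing as for the substrate-free format.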

A further assay has as its system PC3 cells. Briefly: NAMPT Cell Proliferation Assay. The note with it: Homo sapiens, PC-3, 120 h, 5 days incubation, cell viability by Cell Titer Glo. It counts as cell-based. The gist of the method: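 Cell Titer Glo viability after 5-day exposure (37° C, 5% CO2); PC3, 500 cells/well, RPMI + 10% heat-inactivated FBS, overnight attachment before dosing. Dose range 10 μM to 1×10^−5 μM, 10-fold steps. IC50 = sigmoidal fit of % inhibition.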

Molecules are shown by their SMILES.

Sequence of NAMPT (P43490 whole entry): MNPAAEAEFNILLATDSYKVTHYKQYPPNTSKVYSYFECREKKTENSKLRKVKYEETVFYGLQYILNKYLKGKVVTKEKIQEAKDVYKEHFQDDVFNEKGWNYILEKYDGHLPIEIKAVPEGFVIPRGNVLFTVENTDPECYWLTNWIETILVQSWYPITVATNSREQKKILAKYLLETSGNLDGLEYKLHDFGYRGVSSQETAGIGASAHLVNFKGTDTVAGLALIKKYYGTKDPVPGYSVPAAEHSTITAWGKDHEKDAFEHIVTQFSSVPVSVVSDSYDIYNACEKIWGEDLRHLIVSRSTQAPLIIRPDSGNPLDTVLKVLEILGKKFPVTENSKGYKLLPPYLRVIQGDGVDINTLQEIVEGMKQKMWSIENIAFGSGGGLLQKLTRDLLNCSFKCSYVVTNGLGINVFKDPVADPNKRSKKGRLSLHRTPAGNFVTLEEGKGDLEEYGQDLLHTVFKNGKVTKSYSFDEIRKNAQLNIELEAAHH
Sequence of NAMPT (human, recombinant, C-terminally His-tagged) (P43490 whole entry): as above

By IC50 is commonly meant the concentration that gives 50% inhibition. As for `CC(C)OCCNC(=O)N(C[C@H]1CCCO1)c1ncc(C(=O)NCc2ccc3nccn3c2)s1` [Example 154, N-(imidazo[1,2-a]pyridin-6-ylmethyl)-2-({[2-(propan-2-yloxy)ethyl]carbamoyl}[(2R)-tetrahydrofuran-2-ylmethyl]amino)-1,3-thiazole-5-carboxamide], the IC50 is 0.194 µM in assay [1], 0.0026 µM on NAMPT and 0.00667 µM with PC3 cells.

For the molecule `O=C(NCc1ccn2ccnc2c1)c1ccc(C2CCN(C(=O)C3CCOC3)CC2)s1` (stereo not drawn) [Example 261, N-(imidazo[1,2-a]pyridin-7-ylmethyl)-5-[1-(tetrahydrofuran-3-ylcarbonyl)piperidin-4-yl]thiophene-2-carboxamide], the figures for the IC50 (in assay [1]; on NAMPT; in the assay with PC3 cells) were 0.0627 µM, 0.000231 µM and 0.0051 µM, respectively.

As to `Cn1ccc(C(=O)N2CCC(c3ccc(C(=O)NCc4ccn5ccnc5c4)cc3)C2)n1` (stereo not drawn) [Example 593, N-(imidazo[1,2-a]pyridin-7-ylmethyl)-4-{1-[(1-methyl-1H-pyrazol-3-yl)carbonyl]pyrrolidin-3-yl}benzamide], the IC50 in assay [1] amounted to 0.767 µM; at NAMPT, 0.000544 µM; in the assay on PC3 cells it was 0.677 µM.

Take `O=C(NCc1ccn2ccnc2c1)c1ccc(-c2cnn(C[C@@H]3CCCO3)c2)s1` [Example 397, N-(imidazo[1,2-a]pyridin-7-ylmethyl)-5-{1-[(2S)-tetrahydrofuran-2-ylmethyl]-1H-pyrazol-4-yl}thiophene-2-carboxamide]: the IC50 was 0.0177 µM in assay [1], 0.000169 µM on NAMPT and 0.00712 µM in the assay with PC3 cells.

For the molecule `O=C(Nc1ccc(C2CCN(C(=O)C3CCOCC3)CC2)cc1)Nc1ccc2nccn2c1` [Example 109, 1-imidazo[1,2-a]pyridin-6-yl-3-{4-[1-(tetrahydro-2H-pyran-4-ylcarbonyl)piperidin-4-yl]phenyl}urea], the figures for the IC50 (in assay [1]; at NAMPT; with PC3 cells) were 0.34 µM, 0.000209 µM and 0.0522 µM, respectively.

In the case of `O=C(NCc1ccn2ccnc2c1)c1ccc(C2CCN(C(=O)c3cccc(Cl)c3)CC2)cc1` [Example 527, 4-[1-(3-chlorobenzoyl)piperidin-4-yl]-N-(imidazo[1,2-a]pyridin-7-ylmethyl)benzamide], the half-maximal inhibitory concentration (IC50) amounted to 0.141 µM in assay [1], 0.000265 µM at NAMPT and 0.0598 µM in the assay on PC3 cells.

On to `COc1cccc(C(=O)N2CC(c3ccc(C(=O)NCc4ccn5ccnc5c4)cc3)C2)c1` [Example 654, N-(imidazo[1,2-a]pyridin-7-ylmethyl)-4-[1-(3-methoxybenzoyl)azetidin-3-yl]benzamide], for which the values for the IC50 (in assay [1]; on NAMPT; with PC3 cells) were 0.213 µM, 0.000945 µM and 0.0679 µM, respectively.

With `CC(C)S(=O)(=O)N1CCC(c2ccc(C(=O)NCc3ccn4ccnc4c3)cc2)C1` (stereo not drawn) [Example 672, N-(imidazo[1,2-a]pyridin-7-ylmethyl)-4-[1-(propan-2-ylsulfonyl)pyrrolidin-3-yl]benzamide], the IC50 in assay [1] was found to be 0.313 µM; on NAMPT it was 0.000504 µM; with PC3 cells, 0.08 µM.

Regarding `O=C(CC1CCOC1)NC1(c2ccc(C(=O)NCc3ccn4ccnc4c3)s2)COC1` (stereo not drawn) [Example 326, N-(imidazo[1,2-a]pyridin-7-ylmethyl)-5-{3-[(tetrahydrofuran-3-ylacetyl)amino]oxetan-3-yl}thiophene-2-carboxamide], the IC50 in assay [1] was 2.35 µM; on NAMPT it was 0.0013 µM; with PC3 cells it was 0.457 µM.

As for `COCCn1cc(-c2ccc(C(=O)NCc3ccn4ccnc4c3)s2)cn1` [Example 269, N-(imidazo[1,2-a]pyridin-7-ylmethyl)-5-[1-(2-methoxyethyl)-1H-pyrazol-4-yl]thiophene-2-carboxamide], the values for the IC50 (in assay [1]; on NAMPT; in the assay with PC3 cells) were 0.0412 µM, 0.000169 µM and 0.0151 µM, respectively.

Take `O=C(NCc1ccc2nccn2c1)c1cnc(N2CC(c3ccc(Cl)cc3)OC2=O)s1` (stereo not drawn) [Example 158, 2-[5-(4-chlorophenyl)-2-oxo-1,3-oxazolidin-3-yl]-N-(imidazo[1,2-a]pyridin-6-ylmethyl)-1,3-thiazole-5-carboxamide]: the IC50 in assay [1] was found to be 0.341 µM; at NAMPT, 0.00639 µM; in the assay with PC3 cells, 0.191 µM.

In the case of `O=C(NCc1ccn2ccnc2c1)Nc1ccc(C2CN(C(=O)[C@H]3CCCO3)C2)cc1` [Example 458, 1-(imidazo[1,2-a]pyridin-7-ylmethyl)-3-(4-{1-[(2R)-tetrahydrofuran-2-ylcarbonyl]azetidin-3-yl}phenyl)urea], the IC50 in assay [1] was found to be 0.94 µM; on NAMPT, 0.000382 µM; with PC3 cells it was 0.183 µM.

On to `CC1(Cn2cc(-c3ccc(C(=O)NCc4ccn5ccnc5c4)s3)cn2)CCNCC1` [Example 789, N-(imidazo[1,2-a]pyridin-7-ylmethyl)-5-{1-[(4-methylpiperidin-4-yl)methyl]-1H-pyrazol-4-yl}thiophene-2-carboxamide], for which the results for the IC50 (in assay [1]; at NAMPT; in the assay on PC3 cells) were 0.0217 µM, 0.000434 µM and 0.0694 µM, respectively.

Take `COc1ccc(C(=O)N2CC(c3ccc(C(=O)NCc4ccn5ccnc5c4)cc3)C2)cc1` [Example 655, N-(imidazo[1,2-a]pyridin-7-ylmethyl)-4-[1-(4-methoxybenzoyl)azetidin-3-yl]benzamide]: the IC50 came to 0.23 µM in assay [1], 0.000998 µM on NAMPT and 0.0688 µM with PC3 cells.

For the molecule `CC(=O)N1CCC(Oc2ccc(C(=O)NCc3ccn4ccnc4c3)cc2)CC1` [Example 411, 4-[(1-acetylpiperidin-4-yl)oxy]-N-(imidazo[1,2-a]pyridin-7-ylmethyl)benzamide], the IC50 in assay [1] was determined as 1.87 µM; at NAMPT it was 0.000556 µM; in the assay on PC3 cells, 4.72 µM.

In the case of `CC(C)(C)Cn1cc(-c2ccc(C(=O)NCc3ccn4ccnc4c3)o2)cn1` [Example 825, 5-[1-(2,2-dimethylpropyl)-1H-pyrazol-4-yl]-N-(imidazo[1,2-a]pyridin-7-ylmethyl)furan-2-carboxamide], the IC50 in assay [1] stood at 0.0261 µM; on NAMPT, 0.000538 µM; with PC3 cells it was 0.00106 µM.

Regarding `CC[C@@H](O)Cn1cc(-c2ccc(C(=O)NCc3ccc4nccn4c3)s2)cn1` [Example 180, 5-{1-[(2R)-2-hydroxybutyl]-1H-pyrazol-4-yl}-N-(imidazo[1,2-a]pyridin-6-ylmethyl)thiophene-2-carboxamide], the IC50 in assay [1] was 0.584 µM; on NAMPT, 0.000266 µM; with PC3 cells, 0.00912 µM.

For the molecule `O=C(NCc1ccn2ccnc2c1)Nc1ccc(C2CCN(C(=O)[C@H]3CCOC3)CC2)cc1` [Example 286, 1-(imidazo[1,2-a]pyridin-7-ylmethyl)-3-(4-{1-[(3S)-tetrahydrofuran-3-ylcarbonyl]piperidin-4-yl}phenyl)urea], the IC50 was determined as 0.12 µM in assay [1], 0.000412 µM on NAMPT and 0.0194 µM in the assay with PC3 cells.

Regarding `CC(C)CC(=O)N(Cc1ccc(C#N)cc1)c1ncc(C(=O)Nc2ccc3nccn3c2)s1` [Example 53, 2-[(4-cyanobenzyl)(3-methylbutanoyl)amino]-N-(imidazo[1,2-a]pyridin-6-yl)-1,3-thiazole-5-carboxamide], the IC50 is 4.45 µM in assay [1], 0.0144 µM on NAMPT and 3.3 µM in the assay on PC3 cells.

Regarding `O=C(NCc1ccn2ccnc2c1)Nc1ccc(C2CCN(C(=O)C3COCCO3)C2)cc1` (stereo not drawn) [Example 390], the values for the IC50 (in assay [1]; at NAMPT; in the assay with PC3 cells) were 0.133 µM, 0.000445 µM and 0.0803 µM, respectively.

With `COc1ccccc1C(=O)N1CC(c2ccc(C(=O)NCc3ccn4ccnc4c3)cc2)C1` [Example 636, N-(imidazo[1,2-a]pyridin-7-ylmethyl)-4-[1-(2-methoxybenzoyl)azetidin-3-yl]benzamide], the figures for the IC50 (in assay [1]; at NAMPT; in the assay on PC3 cells) were 0.238 µM, 0.000915 µM and 0.0184 µM, respectively.

With `CC(C)(C)OC(=O)N1CC[C@H](Oc2ccc(NC(=O)NCc3ccn4ccnc4c3)cc2)C1` [Example 291, tert-butyl (3S)-3-(4-{[(imidazo[1,2-a]pyridin-7-ylmethyl)carbamoyl]amino}phenoxy)pyrrolidine-1-carboxylate], the figures for the concentration for half-maximal inhibition (IC50) (in assay [1]; at NAMPT; in the assay on PC3 cells) were 0.159 µM, 0.000449 µM and 0.0261 µM, respectively.

Take `O=C(NCc1ccn2ccnc2c1)Nc1ccc(C2CCN(C(=O)c3ccccc3)C2)cc1` (stereo not drawn) [Example 383, 1-[4-(1-benzoylpyrrolidin-3-yl)phenyl]-3-(imidazo[1,2-a]pyridin-7-ylmethyl)urea]: the IC50 in assay [1] is 0.0495 µM; on NAMPT, 0.000225 µM; in the assay on PC3 cells, 0.0133 µM.

For `O=C(NCc1ccn2ccnc2c1)Nc1ccc(O[C@@H]2CCN(C(=O)c3ccc(F)cc3)C2)cc1` [Example 691, 1-(4-{[(3R)-1-(4-fluorobenzoyl)pyrrolidin-3-yl]oxy}phenyl)-3-(imidazo[1,2-a]pyridin-7-ylmethyl)urea], the IC50 in assay [1] was 0.169 µM; on NAMPT it was 0.00067 µM; in the assay with PC3 cells, 0.0777 µM.

Consider `O=C(NCc1ccn2ccnc2c1)c1ccc(C2CN(C(=O)c3cc(F)cc(F)c3)C2)cc1` [Example 648, 4-[1-(3,5-difluorobenzoyl)azetidin-3-yl]-N-(imidazo[1,2-a]pyridin-7-ylmethyl)benzamide], for which the values for the concentration for half-maximal inhibition (IC50) (in assay [1]; on NAMPT; in the assay on PC3 cells) were 0.661 µM, 0.00106 µM and 0.203 µM, respectively.
